Laboratory results as given in patent publication US8927563B2, “Kinase inhibitor” (Respivert Limited, priority 2013, dated 2015).
Where two headings read alike, the source gives them in different places.

Experiments:
[1] = Pharmacokinetics after oral administration to rats; format: in vivo; settings: oral 5 mg/kg, vehicle B
Experimental: Studies were conducted by Sai Life Sciences (Hinjewadi, Pune, India) to investigate the plasma pharmacokinetics and total colon tissue distribution of Compound I. In particular, pharmacokinetic studies were carried out in: • male C57BL/6 mice, following a single oral administration; and • male Wistar rats following a single intravenous or oral administration.

CYP2C9 = CYP2C9 (Homo sapiens (Human), UniProt P11712); experiment: CYP2C9 inhibition with and without preincubation; format: in vitro ADME; settings: for inhibition at 15 µM: human, read-out: 15 μM % Inh
Experimental: Assessment of certain in vitro ADME (absorption, distribution, metabolism, and excretion) parameters for Compound I was conducted by BioFocus (Saffron Walden, UK). The results reveal that Compound I is cleared rapidly by human hepatocytes and that it has a reduced liability for time-dependent cytochrome P450 inhibition.

Lck = Lck (Homo sapiens (Human), UniProt P06239); experiment: Phosphoflow assay, cellular Lck inhibition in Jurkat cells; format: cell-based; settings: H2O2 stimulated, read-out: IC50 Values, phospho-Lck (converted)
Experimental: Jurkat T cells were cultured in starve medium (RPMI 1640+5% FBS) for 24 h prior to the experiment. Cells were harvested and resuspended at 10×10^6 cells/mL in starve medium and then plated into round-bottomed 96 well plates at 1×10^6 cells/well. Serial dilutions of test compound were added (1% final DMSO concentration) for 2 h prior to stimulation. Following pre-incubation with compound, cells were stimulated with H2O2 (0.05% final) for 5 min. The reaction was stopped by centrifugation at 2000 rpm (3 min, 4° C.), then the supernatant was removed and 100 μL of cold fix/perm solution (BD Fix/Perm kit #554714) added. Plates were incubated for 20 min at 4° C. before centrifugation and washing with supplied 1× wash medium (BD Fix/Perm kit #554714). Cells were stained for either phospho-p38α (T180/182), supplied by Cell Signalling Technology (9211s), or phospho-Lck (Y394), supplied by R&D (MAB7500). Antibodies were diluted to 5 μg/mL (R&D) or 1:200 (Cell Signalling Technology) in wash medium, before being incubated 1 h at 4° C. in the dark. Following 3 repeat washes with ice cold wash buffer, secondary antibody (anti-rabbit-FITC #F1362 or anti-mouse-FITC #F2883, both from Sigma) was added at a dilution of 1:1000 and incubated for 1 h at 4° C. in the dark. […] Cells were analysed by flow cytometry using BD Accuri C6.

c-Src = c-Src (Homo sapiens (Human), UniProt P12931); experiment: c-Src enzyme inhibition, Z-LYTE FRET; format: biochemical
Experimental: The enzyme inhibitory activities of compounds disclosed herein are determined by FRET using synthetic peptides labelled with both donor and acceptor fluorophores (Z-LYTE, Invitrogen Ltd., Paisley, UK).
The inhibitory activities of the compound of the invention against c-Src and Syk enzymes (Invitrogen) are evaluated in a similar fashion to that described hereinabove. The relevant enzyme (3000 ng/mL or 2000 ng/mL respectively, 2.5 μL) is incubated with the test compound (either 1 μg/mL, 0.1 μg/mL, 0.01 μg/mL, or 0.001 μg/mL, 2.5 μL each) for 2 hr at RT. The FRET peptides (8 μM, 2.5 μL) and appropriate ATP solutions (2.5 μL, 800 μM for c-Src, and 60 μM ATP for Syk) are then added to the enzymes/compound mixtures and the mixture incubated for 1 hr. Development reagent (protease, 5 μL) is added for 1 hr prior to detection in a fluorescence microplate reader (Varioskan® Flash, ThermoFisher Scientific).
In all cases, the site-specific protease cleaves non-phosphorylated peptide only and eliminates the FRET signal. Phosphorylation levels of each reaction are calculated using the ratio of coumarin emission (donor) over fluorescein emission (acceptor), for which high ratios indicate high phosphorylation and low ratios indicate low phosphorylation levels.

[2] = Hydrolytic stability study; format: physicochemical; settings: buffer, 1 mg/mL
Experimental: Chemical stability of Compound I was assessed in a mixture of DMSO and water (3:1) at a test compound concentration of 1 mg/mL
Sample Preparation • A 1.0 mg sample of test compound was dissolved in 750 μL of DMSO. Water (250 μL) was added slowly, ensuring no precipitation occurred.
Recording Stability • A 50 μL aliquot of the test solution was removed and analysed in duplicate by 5 μL HPLC injections. The peak area for the test compound was recorded following manual integration of the corresponding UV trace. • The test solution was heated to 60° C., with stirring, and 50 μL aliquots removed for HPLC analysis at 5 and 24 h timepoints.

B-Raf = B-Raf (Homo sapiens (Human), UniProt P15056); experiment: KINOMEscan binding of B-Raf to standard ligand
Experimental: Kinase enzyme binding activities of compounds disclosed herein may be determined using a proprietary assay which measures active site-directed competition binding to an immobilized ligand (Fabian, M. A. et al., Nature Biotechnol., 2005, 23:329-336). These assays may be conducted by DiscoverX (formerly Ambit; San Diego, Calif.). The percentage inhibition produced by incubation with a test compound may be calculated relative to the non-inhibited control.

CYP2C9, sequence (P11712 whole entry): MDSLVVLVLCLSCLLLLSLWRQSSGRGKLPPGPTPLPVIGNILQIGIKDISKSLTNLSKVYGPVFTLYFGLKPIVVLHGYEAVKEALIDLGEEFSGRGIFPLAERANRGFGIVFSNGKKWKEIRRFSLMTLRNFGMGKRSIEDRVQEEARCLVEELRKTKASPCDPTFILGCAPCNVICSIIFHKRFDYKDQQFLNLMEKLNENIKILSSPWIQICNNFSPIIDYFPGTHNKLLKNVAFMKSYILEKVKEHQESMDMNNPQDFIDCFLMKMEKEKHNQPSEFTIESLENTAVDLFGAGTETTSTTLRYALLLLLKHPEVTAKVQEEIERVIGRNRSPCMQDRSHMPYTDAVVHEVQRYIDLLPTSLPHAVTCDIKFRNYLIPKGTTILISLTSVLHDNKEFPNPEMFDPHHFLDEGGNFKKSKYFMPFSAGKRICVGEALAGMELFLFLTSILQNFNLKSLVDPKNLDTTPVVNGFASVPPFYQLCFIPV
c-Src, sequence (P12931 whole entry, looked up): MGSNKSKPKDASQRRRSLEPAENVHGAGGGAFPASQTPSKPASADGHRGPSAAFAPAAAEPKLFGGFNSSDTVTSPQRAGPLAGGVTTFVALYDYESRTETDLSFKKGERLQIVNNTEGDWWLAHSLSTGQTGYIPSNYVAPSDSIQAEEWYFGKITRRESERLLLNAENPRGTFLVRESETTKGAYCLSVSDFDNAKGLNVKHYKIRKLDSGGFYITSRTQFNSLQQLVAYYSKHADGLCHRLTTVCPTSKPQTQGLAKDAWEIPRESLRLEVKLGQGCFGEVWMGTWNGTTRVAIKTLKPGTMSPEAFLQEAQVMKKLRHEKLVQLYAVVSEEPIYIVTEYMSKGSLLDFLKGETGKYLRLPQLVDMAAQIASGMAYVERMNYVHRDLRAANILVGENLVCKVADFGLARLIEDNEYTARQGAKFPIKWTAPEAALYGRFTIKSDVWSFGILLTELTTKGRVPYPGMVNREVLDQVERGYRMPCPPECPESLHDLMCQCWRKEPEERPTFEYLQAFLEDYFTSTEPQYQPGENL
Lck, sequence (P06239 whole entry): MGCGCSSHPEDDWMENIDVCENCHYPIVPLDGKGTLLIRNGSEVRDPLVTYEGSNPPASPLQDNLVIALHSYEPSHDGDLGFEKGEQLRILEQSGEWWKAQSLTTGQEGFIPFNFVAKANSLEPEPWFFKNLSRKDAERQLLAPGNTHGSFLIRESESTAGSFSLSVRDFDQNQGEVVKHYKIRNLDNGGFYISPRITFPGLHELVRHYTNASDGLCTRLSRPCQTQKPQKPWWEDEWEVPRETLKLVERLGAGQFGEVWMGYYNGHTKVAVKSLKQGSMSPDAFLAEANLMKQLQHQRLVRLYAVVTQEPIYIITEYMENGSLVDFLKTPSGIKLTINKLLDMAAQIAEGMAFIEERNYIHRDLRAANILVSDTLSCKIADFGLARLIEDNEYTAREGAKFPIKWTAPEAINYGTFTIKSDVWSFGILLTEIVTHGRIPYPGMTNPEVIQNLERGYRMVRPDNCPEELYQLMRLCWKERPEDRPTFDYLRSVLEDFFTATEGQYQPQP
B-Raf, sequence (P15056 whole entry): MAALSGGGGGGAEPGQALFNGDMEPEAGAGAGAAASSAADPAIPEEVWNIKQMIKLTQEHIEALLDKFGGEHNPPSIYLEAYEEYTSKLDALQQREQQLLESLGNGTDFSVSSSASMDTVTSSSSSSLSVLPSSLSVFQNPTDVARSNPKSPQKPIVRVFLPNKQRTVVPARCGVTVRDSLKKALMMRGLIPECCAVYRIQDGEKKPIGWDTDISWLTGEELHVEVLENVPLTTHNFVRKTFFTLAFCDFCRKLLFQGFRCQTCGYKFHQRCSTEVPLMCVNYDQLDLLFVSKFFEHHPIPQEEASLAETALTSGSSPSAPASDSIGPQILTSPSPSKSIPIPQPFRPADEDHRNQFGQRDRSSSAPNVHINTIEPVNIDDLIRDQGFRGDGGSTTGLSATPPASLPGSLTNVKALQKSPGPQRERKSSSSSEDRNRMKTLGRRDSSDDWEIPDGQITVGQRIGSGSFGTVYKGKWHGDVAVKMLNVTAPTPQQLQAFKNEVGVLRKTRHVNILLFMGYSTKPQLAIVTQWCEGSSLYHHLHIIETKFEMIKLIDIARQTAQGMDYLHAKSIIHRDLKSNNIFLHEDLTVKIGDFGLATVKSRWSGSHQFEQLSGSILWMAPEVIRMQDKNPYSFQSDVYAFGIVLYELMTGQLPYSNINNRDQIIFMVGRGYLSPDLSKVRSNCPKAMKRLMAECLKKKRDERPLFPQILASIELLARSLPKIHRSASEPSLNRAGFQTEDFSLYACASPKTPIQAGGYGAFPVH

C#Cc1cc(Nc2nccc(Oc3ccc(NC(=O)Nc4cc(C(C)(C)C)cc(NS(C)(=O)=O)c4OC)c4ccccc34)n2)cc(C(=O)NCCOCCOCCOC)c1 [Compound I, 3-((4-((4-(3-(5-(tert-Butyl)-2-methoxy-3-(methylsulfonamido)phenyl)ureido)naphthalen-1-yl)oxy)pyrimidin-2-yl)amino)-5-ethynyl-N-(2-(2-(2-methoxyethoxy)ethoxy)ethyl)benzamide]
Fpo [1]: 0.0%
IC50 (CYP2C9; CYP2C9, 0 min preincubation): > 15000 nM
IC50 (CYP2C9; CYP2C9, 30 min preincubation): > 15000 nM
inhibition at 15 µM (CYP2C9; CYP2C9, 0 min preincubation): 21%
inhibition at 15 µM (CYP2C9; CYP2C9, 30 min preincubation): 37%
IC50 (Lck): 7.14 nM
IC50 (c-Src): 24 nM
% Parent Remaining ([2]; 0 h): 100%
% Parent Remaining ([2]; 5 h): 100%
% Parent Remaining ([2]; 24 h): 100%
effect on binding of B-Raf to its standard ligand (B-Raf): did not have any significant effect
